The source of these data is US9201062B2, “Predicting toxicity of a compound over a range of concentrations” (CELLOMICS, INC., priority 2011, dated 2015).

Counter-ions that a name gives are not always drawn.

In series [1] the test system is Reactive oxygen species (ROS) levels in cells. From the text:
Once imaging has been performed, automated image processing algorithms as are known in the art can be used in the imaging system to determine the measurements in the cell images.
The target i being evaluated was the normalized ROS response.
where μ is the mean of the normalized non-hepatotoxic compound values and σ is the standard deviation of the normalized non-hepatotoxic compound values.
As noted above, for ROS, the upper threshold may be all that is needed. […] The difficulty in compound toxicity measurement because of non-unidirectional response and/or because of incorrect EC50/IC50 calculation from a dose-response curve are avoided by establishing toxicity thresholds based on the negative controls and by flagging a compound as toxic only if its response goes beyond the determined thresholds at any concentration.
For each target, the minimal coefficient K of the deviation value from the mean of the non-hepatotoxic compound data can be calculated to include all the non-hepatotoxic compounds values between μ+K×σ and μ−K×σ values. These values are set respectively as the upper and lower toxicity thresholds for the target. As noted above, for each target both or only one of the thresholds can be used.
(§1) The normalized values from the hepatotoxic compounds (or compounds of interest) are compared with the threshold value determined above. The compound toxicity is determined by verifying whether the normalized value of the compound is outside the threshold value(s). […] Cell loss was determined to be toxic if the normalized value was less than the lower threshold value. Reactive oxygen species level was determined to be toxic if the respective normalized value was greater than the upper threshold value.

For series [2] the following is noted: peak serum concentration of the drug; cited from earlier work.
Another series relates to rat primary hepatocytes. Kind of series: Multiparametric high-content hepatotoxicity prediction assay on rat primary hepatocytes (FIG. 9 decision table). The conditions noted are these: 24 hours drug incubation, over concentration range, targets: cell number, DNA content, GSH, ROS, mitochondrial membrane potential.
From the text: After drug treatment, the hepatic cells are stained with specific fluorescent materials to detect different cellular targets or properties whose changes are associated with cell health, as is known in the art. For example, in the exemplary embodiments discussed herein, as well as in the test data shown, the following five cellular responses are simultaneously monitored: • 1. Cell number (i.e., cell loss, cell density) • 2. Nuclear DNA content • 3. Reduced glutathione (GSH) levels in cells • 4. Reactive oxygen species (ROS) levels in cells • 5. Mitochondrial membrane potential changes
Otherwise the cell contains a “−”.
This corresponds to the number of target cells corresponding to the compound that contain a “+”.
For maintenance of rat primary hepatocytes, Williams E medium can be used containing the following supplements: 15 mM HEPES, 1% ITS+, 4 mM Glutamax, 0.1 μM dexamethasone, 50 units/ml penicillin and 50 μg/ml streptomycin (Hepatocyte maintenance medium). […]
For each target, the minimal coefficient K of the deviation value from the mean of the non-hepatotoxic compound data can be calculated to include all the non-hepatotoxic compounds values between μ+K×σ and μ−K×σ values. […]
as §1
The images were analyzed, as discussed above, to produce the data shown on FIG. 9. […] After 24 hours of drug incubation, the hepatocytes were stained and imaged on a Thermo Scientific ToxInsight HCS reader. The data for each target were normalized and analyzed based on the threshold calculated from the non-hepatotoxic compounds in the manner discussed above. […]

The test system of the next series is HepG2 cells. Kind of series: High-content imaging of HepG2 cells stained for nuclei, glutathione, ROS and mitochondria (FIG. 11). Format: cell-based. The conditions noted are these: 25 Cmax, 24 hrs. As for the experimental part: For routine culture of HepG2 cells, EMEM medium containing the following supplements can be used: 10% fetal bovine serum, 1 mM sodium pyruvate, 1× non-essential amino acids, 100 units/ml penicillin and 100 μg/ml streptomycin (EMEM complete medium).
Cells can be harvested by trypsinization, diluted into EMEM complete medium and cell density was determined. Cells are diluted to 2.0×10^5 cells/ml in EMEM complete medium. 100 μl of the cell suspension are added per well of the 96-well microplate to achieve 20,000 cells/well.
The cells were then stained with specific fluorescent dyes to detect each cellular target. Cell images were then obtained using the ArrayScan VTi Reader manufactured by Cellomics Inc., a subsidiary of Thermo Fisher Scientific Inc. Representative samples 230 of the cell images obtained during the assay are shown in FIG. 11. […] The images of the cells for the different targets look different for the two drugs; Troglitazone reduces the number of cells and mitochondrial membrane potential but […] reduced glutathione levels in HepG2 cells.

As for `CC(=O)Oc1ccccc1C(=O)O` [Aspirin], the “normalized ROS response relative to upper and lower toxicity thresholds” value in series [1] was “between the upper and lower thresholds values”. The “1 CMax” value in series [2] is 0.995 µg/mL.

For the compound `CN1CCC(=C2c3ccccc3C=Cc3ccccc32)CC1` [Cyproheptadine HCl], the “1 CMax” value in series [2] was 30 µg/mL.

`O=C1CN(/N=C/c2ccc(-c3ccc([N+](=O)[O-])cc3)o2)C(O)=N1` [Dantrolene]: the “1 CMax” value in series [2] is 1.24 µg/mL.

As for `N#CC(C#N)=NNc1ccc(OC(F)(F)F)cc1` [FCCP], in the series on rat primary hepatocytes, the “number of targets flagged as being toxic (of five monitored targets)” value (“number of targets flagged as being toxic” for short) is recorded as “Four”.

In the case of `CNCCC(Oc1ccc(C(F)(F)F)cc1)c1ccccc1` (stereo not drawn) [Fluoxetine], the “normalized ROS response relative to upper and lower toxicity thresholds” value in series [1] was “between the upper and lower thresholds values”. The “1 CMax” value in series [2] was 0.015 µg/mL. For the same compound, the “number of targets flagged as being toxic” value in the series on rat primary hepatocytes is recorded as “none”.

On to `Cc1ccc(C)c(OCCCC(C)(C)C(=O)O)c1` [Gemfibrozil], for which the “1 CMax” value in series [2] is 46.4 µg/mL.

On to `CCN(CC)CCNc1ccc(CO)c2sc3ccccc3c(=O)c12` [Hycanthone], for which the “normalized ROS response relative to upper and lower toxicity thresholds” value in series [1] is recorded as “flagged as being toxic”.

Turning to `Cc1cccc(Nc2ccccc2C(=O)O)c1C` [Mefenamic Acid], the “normalized ROS response relative to upper and lower toxicity thresholds” value in series [1] was “flagged as being toxic”. Also, in series [2], the “1 CMax” value is 6.5 µg/mL.

As to `COc1ccc2[nH]cc(CCNC(C)=O)c2c1` [Melatonin], in series [1], the “normalized ROS response relative to upper and lower toxicity thresholds” value was “between the upper and lower thresholds values”. In addition, the “1 CMax” value in series [2] is 0.00557 µg/mL.

For the compound `CCn1cc(C(=O)O)c(=O)c2ccc(C)nc21` [Nalidixic Acid], in series [2], the “1 CMax” value is 30 µg/mL.

On to `CO[C@@H]1[C@@H](OC(N)=O)[C@@H](O)[C@H](Oc2ccc3c(O)c(NC(=O)c4ccc(O)c(CC=C(C)C)c4)c(=O)oc3c2C)OC1(C)C` [Novobiocin], for which the “normalized ROS response relative to upper and lower toxicity thresholds” value in series [1] is reported as “flagged as being toxic”. Further, the “1 CMax” value in series [2] is 62.5 µg/mL. Besides, the “number of targets flagged as being toxic” value in the series with rat primary hepatocytes is “five”.

For the compound `CCCCC1C(=O)N(c2ccccc2)N(c2ccccc2)C1=O` [Phenylbutazone], the “1 CMax” value in series [2] was 150 µg/mL.

Take `CN(CCOc1ccc(CC2SC(=O)NC2=O)cc1)c1ccccn1` (stereo not drawn) [Rosiglitazone]: the “1 CMax” value in series [2] is 0.373 µg/mL.

Take `CN(C)[C@@H]1C(O)=C(C(N)=O)C(=O)[C@@]2(O)C(O)=C3C(=O)c4c(O)cccc4[C@@](C)(O)[C@H]3C[C@@H]12` [Tetracycline]: in series [2], the “1 CMax” value was 9.317 µg/mL.

Consider `Clc1ccccc1CN1CCc2sccc2C1` [Ticlopidine], for which, in series [2], the “1 CMax” value is 2.13 µg/mL.

Turning to `O=c1n(CCCN2CCN(c3cccc(Cl)c3)CC2)nc2ccccn12` [Trazodone HCl], the “1 CMax” value in series [2] is 1.88 µg/mL.

As to `Cc1c(C)c2c(c(C)c1O)CCC(C)(COc1ccc(CC3SC(=O)NC3=O)cc1)O2` (stereo not drawn) [Troglitazone], in the series on HepG2 cells, the mitochondrial membrane potential entry is given as “reduces”, the number of cells result is on record as “reduces” and the reduced glutathione levels entry is “increases”. In series [2], the “1 CMax” value was 2.82 µg/mL.
